These are literature values, as cited in patent US20210319872A1, “DRUG AND DEVICE COMBINATION PRODUCTS WITH IMPROVED SAFETY AND EFFICACY PROFILES” (priority 2016, published 2021).

Where two headings read alike, the source gives them in different places. Bounds are passed on as bounds.

Setting [1] is: subependymal giant cell astrocytoma.

Regarding `CC(CCc1ccccc1)NCC(O)c1ccc(O)c(C(N)=O)c1.Cl` (stereo not shown), under “in vivo”, the Dizziness entry is given as “Neurologic: Dizziness (9% to 20%)”, the Fatigue result is on record as “Other: Fatigue (11%)”, the Has tingling sensation result was “Dermatologic: Has tingling sensation (7%.)” and the Nasal congestion result was “Respiratory: Nasal congestion (3%)”. Besides, under “in vivo”, the Nausea entry is “Gastrointestinal: Nausea (14%)”. Also, under “in vivo, iv”, the Orthostatic hypotension entry is on record as “Cardiovascular: Orthostatic hypotension (1%, oral; 58%, IV)”. Further, the Orthostatic hypotension result (in vivo, po) is on record as “Cardiovascular: Orthostatic hypotension (1%, oral; 58%, IV)”.

Turning to `CCCC(=O)Nc1ccc(OCC(O)CNC(C)C)c(C(C)=O)c1` (stereo not shown) [Acebutolol (Sectral)], where the note is “in vivo”, the Angina entry is given as “Cardiovascular: Angina (2%), Bradyarrhythmia (2%), Heart failure”; the Bradyarrhythmia result is “Cardiovascular: Angina (2%), Bradyarrhythmia (2%), Heart failure”; the Dizziness result is given as “Neurologic: Dizziness (6%), Headache (6%)”; the Fatigue result was “Other: Fatigue (11%)”. Besides, for the setting “in vivo”, the Headache result is “Neurologic: Dizziness (6%), Headache (6%)” and the Heart failure result is “(2%)”.

`CO[C@H]1C[C@@H]2CC[C@@H](C)[C@@](O)(O2)C(=O)C(=O)N2CCCC[C@H]2C(=O)O[C@H]([C@H](C)C[C@@H]2CC[C@@H](OCCO)[C@H](OC)C2)CC(=O)[C@H](C)/C=C(\C)[C@@H](O)[C@@H](OC)C(=O)[C@H](C)C[C@H](C)/C=C/C=C/C=C/1C` [Afinitor]: the Pulmonary embolism (PNET) is given as 2.5%. In addition, where the note is “Transplant”, the Angioedema entry was “Other: Angioedema (Transplant, up to 6.8%), Sepsis (tumors less”; the Hemolytic uremic syndrome entry is given as “Renal: Hemolytic uremic syndrome (Transplant, less than 1%),”; the Pericardial effusion entry was “Cardiovascular: Pericardial effusion (Transplant, less than 1%)”; the “Thrombocytopenia, All grades” value was at most 10%. Besides, where the note is “Transplant”, the Thrombotic microangiopathy was < 1%), Thrombotic thrombocytopenic purpura (Transplant, less than and the Thrombotic thrombocytopenic purpura was under 1%. The Hypoalbuminemia result (breast cancer) is on record as “Hypoalbuminemia (breast cancer, 33%), Hypophosphatemia”. In addition, under “in vivo”, the Interstitial lung disease entry was “Respiratory: Interstitial lung disease (Less than 1%), Non-” and the Non-infectious pneumonia is given as at most 19%. For the setting “kidney transplant”, the “Anemia, All grades” value is “transplant, 26%), Decreased lymphocyte count, all grades (tumors,”; the Constipation was 38%; the Cough is 7%; the Diarrhea entry is “kidney transplant, 19%; liver transplant, 19%), Nausea (tumors,”. In addition, under “kidney transplant”, the Dyslipidemia entry was “Endocrine metabolic: Dyslipidemia (kidney transplant, 15%),”; the Fatigue is on record as 9%; the Fever is reported as 19%; the Hypercholesterolemia is 17%. For the same molecule, for the setting “kidney transplant”, the Hyperlipidemia is recorded as 21%; the Hypertension is 30%; the Hypophosphatemia was 13%; the Impaired wound healing entry is reported as “Immunologic: Impaired wound healing (kidney transplant, 35%;”. Moreover, for the setting “kidney transplant”, the “Increased glucose level, All grades” value is given as 12%; the Infectious disease is reported as 62%; the Leukopenia is 3%; the Nausea is listed as 29%. For the same molecule, under “kidney transplant”, the Peripheral edema is on record as 45%; the Serum creatinine raised is 18%; the Stomatitis is reported as 8%; the Upper respiratory infection result was “transplant, 16%)”. Where the note is “kidney transplant”, the “Urinary tract infectious disease” value is on record as 16%; kidney transplant, 22%) and the Vomiting is 15%. The “Serious side effect, Respiratory” value (listed without frequency) is given as “Pneumocystis pneumonia”. Moreover, for the setting “liver transplant”, the Diarrhea entry is listed as “kidney transplant, 19%; liver transplant, 19%), Nausea (tumors,”; the Fever entry is reported as “transplant, 13%)”; the Hyperlipidemia is listed as 24%; the Hypertension is reported as 17%. Besides, under “liver transplant”, the Impaired wound healing entry is recorded as “liver transplant, 11%)”; the Infectious disease was 50%; the Leukopenia is 12%; the Nausea is 14%. The Peripheral edema (liver transplant) is 18%. Also, for the setting “renal angiomyolipoma”, the Amenorrhea result is “Reproductive: Amenorrhea (renal angiomyolipoma, 15%),”; the Menorrhagia entry is given as “angiomyolipoma, 10%)”; the Otitis media entry is on record as “Otic: Otitis media (renal angiomyolipoma, 6%)”; the Seizure result is “Neurologic: Seizure (renal angiomyolipoma, 5%)”. Where the note is “renal cell carcinoma”, the Hemorrhage is recorded as 3%; the Pneumonia was 6%; the Renal failure entry is “Renal failure (renal cell carcinoma, 3%), Thrombosis of renal”. Besides, under setting [1], the Mental disorder result is recorded as “astrocytoma, 21%)” and the “Partial thromboplastin time increased” value is on record as “giant cell astrocytoma, 72%), Thrombocytopenia, All grades”. Where the note is “tumors”, the Pleural effusion is reported as 7% and the Sepsis is recorded as under 1%.

Regarding `Cc1ccc(-c2nc3ccc(C)cn3c2CC(=O)N(C)C)cc1` [Ambien (zolpidem)], where the note is “in vivo”, the Allergic reaction entry is given as “Immunologic: Allergic reaction (4%)”; the Anaphylaxis result was “Immunologic: Anaphylaxis (rare)”; the Angioedema entry is recorded as “Other: Angioedema (rare)”; the Chest pain result is on record as “Cardiovascular: Chest pain (1%), Tachycardia (0.1% to 1%)”. Besides, where the note is “in vivo”, the Diarrhea entry is given as “Gastrointestinal: Diarrhea (1% to 3%), Nausea (1% to 7%)”; the Dizziness entry is “Neurologic: Dizziness (1% to 23.5%), Drugged state (3%),”; the Drugged state result is listed as “Neurologic: Dizziness (1% to 23.5%), Drugged state (3%),”; the Fatigue result is on record as “Other: Fatigue (0.1% to 3%)”. Further, for the setting “in vivo”, the Headache result is reported as “Headache (1% to 19%), Somnolence (2% to 15%)”; the Nausea result was “Gastrointestinal: Diarrhea (1% to 3%), Nausea (1% to 7%)”; the “Serious side effect, Neurologic” value is recorded as “Neurologic: Hepatic encephalopathy”; the Somnolence entry is recorded as “Headache (1% to 19%), Somnolence (2% to 15%)”. Under “in vivo”, the Tachycardia entry is on record as “Cardiovascular: Chest pain (1%), Tachycardia (0.1% to 1%)” and the Visual disturbance entry was “Ophthalmic: Visual disturbance (3%)”.

As for `N=C(N)NC(=O)c1nc(Cl)c(N)nc1N` [Amiloride (Midamor)], where the note is “in vivo”, the Asthenia result is recorded as “Musculoskeletal: Asthenia (greater than 1% to less than 3%),”; the “Cardiac dysrhythmia (incidence)” value was “Cardiovascular: Cardiac dysrhythmia (1% or less), Palpitations (1%”; the “Cough (incidence)” value is recorded as “Respiratory: Cough (greater than 1% to less than 3%), Dyspnea”; the Cramp entry is on record as “Cramp (greater than 1% to less than 3%)”. Further, for the setting “in vivo”, the Diarrhea entry is listed as “Gastrointestinal: Diarrhea (3% to 8%), Loss of appetite (3% to 8%),”; the Dizziness result is on record as “Neurologic: Dizziness (greater than 1% to less than 3%), Headache”; the “Dyspnea (incidence)” value is listed as “(greater than 1% to less than 3%)”; the “Encephalopathy (incidence)” value is reported as “Neurologic: Encephalopathy (greater than 1% to less than 3%)”. In addition, under “in vivo”, the “Headache (incidence)” value is given as “(3% to 8%)”; the “Hyperkalemia (incidence)” value is reported as “Endocrine metabolic: Hyperkalemia (10%)”; the Nausea entry is “Nausea (3% to 8%), Vomiting (3% to 8%)”; the “Palpitations (incidence)” value is reported as “Cardiovascular: Cardiac dysrhythmia (1% or less), Palpitations (1%”. Further, under “in vivo”, the “Raised intraocular pressure (incidence)” value is on record as “Ophthalmic: Raised intraocular pressure (1% or less)”; the Rash result is listed as “Dermatologic: Rash (1% or less)”; the “Serious side effect listed (incidence not given)” value was “Hematologic: Aplastic anemia, Neutropenia”; the Vomiting result was “Nausea (3% to 8%), Vomiting (3% to 8%)”.

In the case of `CCOC(=O)C1=C(COCCN)NC(C)=C(C(=O)OC)C1c1ccccc1Cl` (stereo not shown) [Amlodipine (Norvasc, Lotrel)], where the note is “in vivo”, the Abdominal pain entry was “Gastrointestinal: Abdominal pain (1.6%), Nausea (2.9%.)”; the Dizziness entry was “Neurologic: Dizziness (Up to 3.4%), Headache (7.3%),”; the Fatigue result is given as “Other: Fatigue (4.5%)”; the Flushing entry is on record as “Cardiovascular: Flushing (0.7% to 2.6%), Palpitations (Up to”. For the setting “in vivo”, the Headache entry is “Neurologic: Dizziness (Up to 3.4%), Headache (7.3%),”; the Nausea entry was “Gastrointestinal: Abdominal pain (1.6%), Nausea (2.9%.)”; the Palpitations is recorded as ≤ 4.5%), Peripheral edema (Up to 10.8%); the Peripheral edema is listed as ≤ 4.5%), Peripheral edema (Up to 10.8%). For the setting “in vivo”, the Somnolence result is on record as “Somnolence (1.4%)”.

`Nc1ccncc1` [Ampyra]: for the setting “in vivo”, the Abdominal pain result is on record as “Gastrointestinal: Abdominal pain (7%), Nausea (7% to 13%),”; the Abnormal gait result was “Musculoskeletal: Abnormal gait (5%), Backache (5%)”; the Anxiety entry is “Psychiatric: Anxiety (5%)”; the Asthenia entry was “Neurologic: Asthenia (7%), Dizziness (7%), Headache (7%),”. Further, under “in vivo”, the Backache result is listed as “Musculoskeletal: Abnormal gait (5%), Backache (5%)”; the Dizziness result is given as “Neurologic: Asthenia (7%), Dizziness (7%), Headache (7%),”; the Headache result is “Neurologic: Asthenia (7%), Dizziness (7%), Headache (7%),”; the Insomnia entry is listed as “Insomnia (9%)”. Under “in vivo”, the Nausea result is given as “Gastrointestinal: Abdominal pain (7%), Nausea (7% to 13%),”; the “Serious side effect, Immunologic” value is “Immunologic: Anaphylaxis, Hypersensitivity reaction”; the “Serious side effect, Neurologic” value is recorded as “Neurologic: Seizure”; the “Urinary tract infectious disease” value is reported as “Renal: Urinary tract infectious disease (12%)”. The Vomiting result (in vivo) is recorded as “Vomiting (13%)”.

Consider `CCC1(CCC(C)C)C(=O)NC(=O)NC1=O` [Amytal (amobarbital)], for which, under “in vivo”, the Agranulocytosis entry was “Hematologic: Agranulocytosis (rare), Megaloblastic anemia, With”; the “Common side effect, Neurologic” value was “Neurologic: Confusion, Dizziness, Headache, Somnolence”; the “Injury of liver, With prolonged use” value is listed as “Hepatic: Injury of liver, With prolonged use (rare)”; the “Megaloblastic anemia, With prolonged use” value is recorded as “prolonged use (rare)”. Further, for the setting “in vivo”, the “Serious side effect, Respiratory” value is “Respiratory: Apnea, Hypoventilation” and the Stevens-Johnson syndrome result is listed as “Dermatologic: Stevens-Johnson syndrome (rare)”.
